Experiments:
Format in all cases: cell-based
[1] = test system: human peripheral blood monocytes; test: Activation of monocytes in vitro measured by production of Interleukin-1-beta (ELISA); conditions: 24 Hours
Procedure: (§1) Human peripheral blood monocytes were isolated by density gradient centrifugation as noted in Example 13. The cell number was adjusted to 5×10^5 cells per ml in RPM 1640 media containing 5% human AB negative serum. One ml containing 5×10^5 cells were placed in individual wells of 24-well Plastek tissue culture plate. Various drugs in a volume of 0.5 ml were added at time zero. The compounds were also formulated in liposomes as described in Example 10, and added in a volume of 0.5 ml to individual wells of a 24-well Plastek tissue culture plate. The cells were incubated at 37° C. in a 5% CO2 atmosphere. Aliquots (0.1 ml) of the supernatant were removed at 24 hours and frozen at -20° C. These samples were subsequently assayed for TNF as described in Example 33 and Interleukin-1-beta (IL-1β) using a commercially available ELISA kit from Cistron (Pine Brook, N.J.).

[2] = test system: human peripheral blood monocytes; test: Activation of monocytes in vitro measured by production of tumor necrosis factor (ELISA); conditions: for TNF (pg/ml) at given Concentration of Compound: 24 Hours
Procedure: Human peripheral blood monocytes were isolated by density gradient centrifugation as noted in Example 13. The cell number was adjusted to 5×10^5 cells per ml in RPM 1640 media containing 5% human AB negative serum. One ml containing 5×10^5 cells were placed in individual wells of a 24-well Plastek tissue culture plate. Various drugs in a volume of 0.5 ml were added at time zero. The cells were incubated at 37° C. in a 5% CO2 atmosphere. Aliquots (0.1 ml) of the supernatant were removed at 24 hours and frozen at -80° C. These samples were subsequently assayed for tumor necrosis factor (TNF) activity using a commercially available ELISA Assay from T-Cell Sciences (Cambridge, Mass.).
Human peripheral blood monocytes were isolated by density gradient centrifugation as described in Example 13. The cells were plated in 24-well microliter plates as described in Example 33. The compounds Were prepared in liposomes as described in Example 10, and assayed for TNF production, as described in Example 33. The results are set forth in Table 5, and show significant levels of TNF compared to controls.
as §1

[3] = test system: Human peripheral blood mononuclear cells; test: Activation of monocytes in vitro measured by in vitro tumor cell cytotoxicity
Procedure: Human peripheral blood mononuclear cells were isolated by density gradient centrifugation on 46% Percoll. 1×10^5 of the mononuclear cells were plated onto Falcon microliter plates and allowed to adhere for two hours. The non-adherent cells were removed and fresh media added. The cells were allowed to incubate for 24 hours after which various concentrations of the drug either alone or incorporated in liposomes was added. After 24 hours, the plates were washed and 1×10^4 I^125 labelled target cells were added. Following an additional 72 hours of coincubation, the plates were washed and the residual radioactivity determined. The specific cytotoxicity was calculated from the formula: [formula] The results of cytotoxicity assay of various compounds alone or incorporated in liposomes at various concentrations is given in Table 6.

[4] = Table 8, Experiment 1, 0.01 μg/ml
[5] = Table 8, Experiment 1, 0.1 μg/ml
[6] = Table 8, Experiment 1, 1.0 μg/ml
[7] = Table 8, Experiment 1, 10.0 μg/ml
[8] = Table 7, Experiment 1, 0.01 μg/ml
[9] = Table 7, Experiment 1, 0.1 μg/ml
[10] = Table 7, Experiment 1, 1.0 μg/ml
[11] = Table 7, Experiment 1, 10.0 μg/ml
[12] = Experiment 3, free drug in saline 0.1 μg/ml, 24 hours
[13] = Experiment 3, free drug in saline 1.0 μg/ml, 24 hours
[14] = Experiment 3, free drug in saline 10.0 μg/ml, 24 hours
[15] = PC/PG liposomes (7:3), 0.1 μg/ml
[16] = PC/PG liposomes (7:3), 1.0 μg/ml
[17] = PC/PG liposomes (7:3), 10.0 μg/ml
[18] = no formulation given (drug alone), 0.1 μg/ml
[19] = no formulation given (drug alone), 1.0 μg/ml
[20] = no formulation given (drug alone), 10.0 μg/ml
[21] = Table 9, Experiment 2, 0.1 μg/ml
[22] = Table 9, Experiment 2, 1.0 μg/ml
[23] = Table 9, Experiment 2, 10.0 μg/ml

Structure (SMILES): CC(=O)NC1C(OC2C(CO)OC(O)C(NC(C)=O)C2OC(C)C(=O)NC(C(=O)NC(CCC(=O)O)C(N)=O)C(C)O)OC(CO)C(O)C1O [GlcNAcMurNAc-L-Thr-D-isoGln]
- IL-1-beta (pg/ml) at given Concentration of Compound [1, 4]: 50 pg/mL
- IL-1-beta (pg/ml) at given Concentration of Compound [1, 5]: 70 pg/mL
- IL-1-beta (pg/ml) at given Concentration of Compound [1, 6]: 230 pg/mL
- IL-1-beta (pg/ml) at given Concentration of Compound [1, 7]: 630 pg/mL
- TNF (pg/ml) at given Concentration of Compound [2, 8]: 200 pg/mL
- TNF (pg/ml) at given Concentration of Compound [2, 9]: 440 pg/mL
- TNF (pg/ml) at given Concentration of Compound [2, 10]: 1050 pg/mL
- TNF (pg/ml) at given Concentration of Compound [2, 11]: 1050 pg/mL

Structure (SMILES): CCCCCCCCCCCCCCCC(=O)OCC(COC(=O)CCCCCCCCCCCCCCC)NC(=O)C(C)NC(=O)CCC(NC(=O)C(C)NC(=O)C(C)OC1C(NC(C)=O)C(O)OC(CO)C1OC1OC(CO)C(O)C(O)C1NC(C)=O)C(N)=O [Compound IB, GlcNAcMurNAc-L-Ala-D-isoGln-D-Ala-NHDPG]
- TNF Level [2, 12]: 180 pg/mL
- TNF Level [2, 13]: 350 pg/mL
- TNF Level [2, 14]: 1980 pg/mL

Structure (SMILES): CCCCCCCCCCCCCCCC(=O)OCC(COC(=O)CCCCCCCCCCCCCCC)NC(=O)C(C)NC(=O)CCC(NC(=O)C(C)NC(=O)C(C)OC1C(NC(C)=O)C(O)OC(CO)C1OC1OC(CO)C(O)C(O)C1NC(C)=O)C(N)=O [Compound IC, GlcNAcMurNAc-D-Ala-D-isoGln-D-Ala-NHDPG]
- Cytotoxicity [3, 15]: 10.0%
- Cytotoxicity [3, 16]: 4.0%
- Cytotoxicity [3, 17]: 12.0%
- Cytotoxicity [3, 18]: 5.0%
- Cytotoxicity [3, 19]: 16.0%
- Cytotoxicity [3, 20]: 15.0%
- TNF Level [2, 12]: 280 pg/mL
- TNF Level [2, 13]: 300 pg/mL
- TNF Level [2, 14]: 250 pg/mL

Structure (SMILES): CCCCCCCCCCCCCCCC(=O)OCC(COC(=O)C(C)NC(=O)CCC(NC(=O)C(C)NC(=O)C(C)OC1C(NC(C)=O)C(O)OC(CO)C1OC1OC(CO)C(O)C(O)C1NC(C)=O)C(N)=O)OC(=O)CCCCCCCCCCCCCCC [Compound IIB, 4-O-[2-acetamido-2-deoxy-β-D-glucopyranosyl]-2-acetamido-2-deoxy-3-O-[D-2-propanoyl-L-alanyl-D-isoglutaminyl-D-alanyl-1,2-dipalmitoyl-sn-glycerol]-D-glucopyranose]
- TNF Level [2, 12]: 250 pg/mL
- TNF Level [2, 13]: 500 pg/mL
- TNF Level [2, 14]: 1600 pg/mL

Structure (SMILES): CCCCCCCCCCCCCCCC(=O)OCC(COC(=O)C(NC(=O)CCC(NC(=O)C(C)NC(=O)C(C)OC1C(NC(C)=O)C(O)OC(CO)C1OC1OC(CO)C(O)C(O)C1NC(C)=O)C(N)=O)C(C)C)OC(=O)CCCCCCCCCCCCCCC [IIG, GlcNAcMurNAc-F-Ala-D-isoGln-F-Val-DpG]
- TNF (pg/ml) at given Concentration of Compound [2, 21]: 1150 pg/mL
- TNF (pg/ml) at given Concentration of Compound [2, 22]: 1500 pg/mL
- TNF (pg/ml) at given Concentration of Compound [2, 23]: 1400 pg/mL

Structure (SMILES): CCCCCCCCCCCCCCCC(=O)OCC(COC(=O)CCCCCCCCCCCCCCC)NC(=O)C(C)NC(=O)CCC(NC(=O)C(NC(=O)C(C)OC1C(NC(C)=O)C(O)OC(CO)C1OC1OC(CO)C(O)C(O)C1NC(C)=O)C(C)O)C(N)=O [ID, GlcNAcMurNAc-F-Thr-D-isoGln-F-Ala-NHDPG]
- IL-1-beta (pg/ml) at given Concentration of Compound [1, 4]: 10 pg/mL
- IL-1-beta (pg/ml) at given Concentration of Compound [1, 5]: 16 pg/mL
- IL-1-beta (pg/ml) at given Concentration of Compound [1, 6]: 8 pg/mL
- IL-1-beta (pg/ml) at given Concentration of Compound [1, 7]: 90 pg/mL
- TNF (pg/ml) at given Concentration of Compound [2, 9]: 0 pg/mL
- TNF (pg/ml) at given Concentration of Compound [2, 10]: 250 pg/mL
- TNF (pg/ml) at given Concentration of Compound [2, 11]: 1060 pg/mL

Structure (SMILES): CCCCCCCCCCCCCCCC(=O)OCC(COC(=O)C(C)NC(=O)CCC(NC(=O)C(NC(=O)C(C)OC1C(NC(C)=O)C(O)OC(CO)C1OC1OC(CO)C(O)C(O)C1NC(C)=O)C(C)O)C(N)=O)OC(=O)CCCCCCCCCCCCCCC [IID, GlcNAcMurNAc-F-Thr-D-isoGln-F-Ala-DPG]
- IL-1-beta (pg/ml) at given Concentration of Compound [1, 4]: 70 pg/mL
- IL-1-beta (pg/ml) at given Concentration of Compound [1, 5]: 14 pg/mL
- IL-1-beta (pg/ml) at given Concentration of Compound [1, 6]: 170 pg/mL
- IL-1-beta (pg/ml) at given Concentration of Compound [1, 7]: 690 pg/mL
- TNF (pg/ml) at given Concentration of Compound [2, 8]: 70 pg/mL
- TNF (pg/ml) at given Concentration of Compound [2, 9]: 320 pg/mL
- TNF (pg/ml) at given Concentration of Compound [2, 10]: 1080 pg/mL
- TNF (pg/ml) at given Concentration of Compound [2, 11]: 2150 pg/mL

Structure (SMILES): CCCCCCCCCCCCCCCC(=O)OCC(COC(=O)C(C)NC(=O)CCC(NC(=O)C(C)NC(=O)C(C)OC1C(NC(C)=O)C(O)OC(CO)C1OC1OC(CO)C(O)C(O)C1NC(C)=O)C(N)=O)OC(=O)CCCCCCCCCCCCCCC [Compound IIC, GlcNAcMurNAc-D-Ala-D-isoGln-D-Ala-DPG]
- TNF Level ([2]; Experiment 4, free drug in saline 0.1 μg/ml, 24 hours): 40 pg/mL
- TNF Level ([2]; Experiment 4, free drug in saline 1.0 μg/ml, 24 hours): 110 pg/mL
- TNF Level ([2]; Experiment 4, free drug in saline 10.0 μg/ml, 24 hours): 450 pg/mL

Structure (SMILES): CCCCCCCCCCCCCCCC(=O)OCC(COC(=O)CCCCCCCCCCCCCCC)NC(=O)C(C)NC(=O)CCC(NC(=O)C(C)NC(=O)C(C)OC1C(NC(C)=O)C(O)OC(CO)C1OC1OC(CO)C(O)C(O)C1NC(C)=O)C(N)=O [Compound IA, 4-O-[2-acetamido-2-deoxy-β-D-glucopyranosyl]-2-acetamido-2-deoxy-3-O-[D-2-propanoyl-L-alanyl-D-isoglutaminyl-L-alanyl-2-(1,3-dipalmitoyloxy)propylamide]-D-glucopyranose]
- Cytotoxicity [3, 15]: 7.0%
- Cytotoxicity [3, 16]: 7.0%
- Cytotoxicity [3, 17]: 6.0%
- Cytotoxicity ([3]; PC/PS liposomes (7:3), 0.1 μg/ml): 8.0%
- Cytotoxicity ([3]; PC/PS liposomes (7:3), 1.0 μg/ml): 5.0%
- Cytotoxicity ([3]; PC/PS liposomes (7:3), 10.0 μg/ml): 19.0%
- Cytotoxicity [3, 18]: 1.0%
- Cytotoxicity [3, 19]: 4.0%
- Cytotoxicity [3, 20]: 3.0%
- TNF Level [2, 12]: 280 pg/mL
- TNF Level [2, 13]: 1000 pg/mL
- TNF Level [2, 14]: 1680 pg/mL
- TNF Level ([2]; Table 5, compound incorporated in liposomes, 0.1 μg/ml): 430 pg/mL
- TNF Level ([2]; Table 5, compound incorporated in liposomes, 1.0 μg/ml): 800 pg/mL
- TNF Level ([2]; Table 5, compound incorporated in liposomes, 10.0 μg/ml): 750 pg/mL

Structure (SMILES): CCCCCCCCCCCCCCCC(=O)OCC(COC(=O)C(C)NC(=O)CCC(NC(=O)C(NC(=O)C(C)OC1C(NC(C)=O)C(O)OC(CO)C1OC1OC(CO)C(O)C(O)C1NC(C)=O)C(C)C)C(N)=O)OC(=O)CCCCCCCCCCCCCCC [IIF, GlcNAcMurNAc-F-Val-D-isoGln-F-Ala-DpG]
- IL-1-beta (pg/ml) at given Concentration of Compound [1, 4]: 220 pg/mL
- IL-1-beta (pg/ml) at given Concentration of Compound [1, 5]: 212 pg/mL
- IL-1-beta (pg/ml) at given Concentration of Compound [1, 6]: 260 pg/mL
- IL-1-beta (pg/ml) at given Concentration of Compound [1, 7]: 260 pg/mL
- TNF (pg/ml) at given Concentration of Compound [2, 8]: 510 pg/mL
- TNF (pg/ml) at given Concentration of Compound [2, 9]: 440 pg/mL
- TNF (pg/ml) at given Concentration of Compound [2, 10]: 480 pg/mL
- TNF (pg/ml) at given Concentration of Compound [2, 11]: 400 pg/mL

Structure (SMILES): CCCCCCCCCCCCCCCC(=O)OCC(COC(=O)C(C)NC(=O)CCC(NC(=O)C(CO)NC(=O)C(C)OC1C(NC(C)=O)C(O)OC(CO)C1OC1OC(CO)C(O)C(O)C1NC(C)=O)C(N)=O)OC(=O)CCCCCCCCCCCCCCC [IIE, GlcNAcMurNAc-F-Ser-D-isoGln-F-Ala-DPG]
- TNF (pg/ml) at given Concentration of Compound [2, 21]: 150 pg/mL
- TNF (pg/ml) at given Concentration of Compound [2, 22]: 800 pg/mL
- TNF (pg/ml) at given Concentration of Compound [2, 23]: 1500 pg/mL
